Key:
Assay type in all cases: physicochemical
[1] = Surfactant phase behavior study (cross-polarized microscopy); details: room temperature
Protocol: Phase behavior is observed using an Olympus BH-2 cross-polarized microscope at 100-400× and room temperature (20° C. to 22° C.). The inventive monounsaturated alcohol ethoxylates are compared with their saturated analogs.
Samples are prepared by diluting the most concentrated product gradually with deionized water. When the surfactant concentration approaches a phase transition, the concentration is varied at 2-4% intervals to estimate the phase boundary. The actives level reported in Table 4 for each phase boundary is within ±5% of the true boundary.
Samples are loaded between a microscope slide and cover glass and are allowed to equilibrate before observation. Microscopic texture is analyzed and used to determine the phase. For some samples, an AR 2000 rheometer (TA Instruments) is used to measure viscosity at 25° C. to further verify phase behavior.

[2] = Emulsion stability testing of nonionic emulsifiers, Hallcomid solvent series; design: key: C = creamy; CO = creamy oil; O = oil; GC = gritty cream; NS = no separation; OC = oily cream; details: Bifenthrin 240 g/L in Hallcomid M-8-10, 34 ppm water
Protocol: (§1) Nonionic samples contain a low amount of water (<1%) and are prepared as emulsifiable concentrates with three pesticides using two different solvent systems. In the aromatic solvent series, the nonionic sample replaces Toximul® 8240 (castor oil ethoxylate, 36 POE, Stepan), and in the Hallcomid™ (N,N-dimethylcaprylamide/N,N-dimethylcapramide, Stepan) solvent series, the nonionic sample replaces Ninex® MT-630F.
(§2) Hallcomid Solvent Series.
(§3) Sample preparation: The surfactants are combined and stirred until homogeneous, with the nonionic sample melted if needed prior to combination. Controls 1-3 are made by using Ninex MT-630F in the amounts indicated instead of the nonionic sample.
(§4) Emulsion Stability Testing
(§5) A Mohr pipette is used to feed pesticide/surfactant concentrates to each cylinder.

[3] = as above; design: key to 24 h separation, appearance / 1 h separation, appearance / 1 h separation, amount: C = creamy; CO = creamy oil; O = oil; GC = gritty cream; NS = no separation; OC = oily cream; key to Spon. (spontaneity): G = good; F = fair; P = poor
Protocol: as §1, §2, §3, §4, §5

[4] = Emulsion stability testing of nonionic emulsifiers, aromatic solvent series; design: key to 24 h separation, appearance / 1 h separation, appearance / 1 h separation, amount: C = creamy; CO = creamy oil; O = oil; GC = gritty cream; NS = no separation; OC = oily cream; key to Spon. (spontaneity): G = good; F = fair; P = poor
Protocol: as §1
Sample preparation: Ninate® 60E (calcium alkylbenzenesulfonate, Stepan) and the test sample are stirred until homogeneous. […] Controls 1-3 are made by using Toximul 8240 in the amounts indicated instead of the nonionic sample.
Formulations: • 1. Bifenthrin, 240 g/L (2.99 g), Aromatic 100 (ExxonMobil, 8.05 g), Ninate 60E (0.38 g), and nonionic sample or Toximul 8240 (0.58 g). • 2. 2,4-D ester, 480 g/L (8.90 g), Exxsol® D-110 (ExxonMobil, 2.50 g), Ninate 60E (0.36 g), and nonionic sample or Toximul 8240 (0.24 g). • 3. Tebuconazole, 360 g/L (4.45 g), N-methyl-2-pyrrolidone (6.35 g), Ninate 60E (0.48 g), nonionic sample or Toximul 8240 (0.72 g).
as §4, §5

[5] = 2,4-D diester 480 g/L in Hallcomid M-8-10, 34 ppm water
[6] = 2,4-D diester 480 g/L in Hallcomid M-8-10, 1000 ppm water
[7] = Bifenthrin 240 g/L in Hallcomid M-8-10, 34 ppm water
[8] = Bifenthrin 240 g/L in Hallcomid M-8-10, 1000 ppm water
[9] = Tebuconazole 360 g/L in Hallcomid M-8-10, 34 ppm water
[10] = Tebuconazole 360 g/L in Hallcomid M-8-10, 1000 ppm water
[11] = 2,4-D ester 480 g/L in Exxsol D-110, 34 ppm water
[12] = 2,4-D ester 480 g/L in Exxsol D-110, 1000 ppm water
[13] = Bifenthrin 240 g/L in Aromatic 100, 34 ppm water
[14] = Bifenthrin 240 g/L in Aromatic 100, 1000 ppm water
[15] = Tebuconazole 360 g/L in N-methyl-2-pyrrolidone, 34 ppm water
[16] = Tebuconazole 360 g/L in N-methyl-2-pyrrolidone, 1000 ppm water

In the case of CCC=CCCCCCCCCOCCOCCOCCO (mixture of isomers) [A12-7], the “combined isotropic phases (clear and opaque), share of the total” value [1] is reported as “about 66%”, the “Isotropic Clear phase region” value ([1]; in deionized water) is reported as 74-100 % Actives Level and the “Isotropic Opaque phase region” value ([1]; in deionized water) is reported as 0-40 % Actives Level. For the same compound, the Lamellar phase region ([1]; in deionized water) was 40-74 % Actives Level, the “24 h separation, amount” value [2] was “NS” and the “1 h separation, amount” value [3, 5] was 6 mL. The “1 h separation, appearance” value [3, 5] was “C”, the “24 h separation, amount” value [3, 5] was 10 mL and the “24 h separation, appearance” value [3, 5] was “C”. The “Spon. (spontaneity)” value [3, 5] was “F”, the “1 h separation, amount” value [3, 6] was 6.7 mL and the “1 h separation, appearance” value [3, 6] was “C”. For the same compound, the “24 h separation, amount” value [3, 6] was 8.2 mL, the “24 h separation, appearance” value [3, 6] was “C” and the “Spon. (spontaneity)” value [3, 6] was “F”. For the same compound, the “1 h separation, amount” value [3, 7] was “NS”, the “Spon. (spontaneity)” value [3, 7] was “G” and the “1 h separation, amount” value [3, 8] was 10.2 mL. For the same compound, the “1 h separation, appearance” value [3, 8] was “C”, the “24 h separation, amount” value [3, 8] was 2 O, 3.5 CO and the “Spon. (spontaneity)” value [3, 8] was “F”. The “1 h separation, amount” value [3, 9] was 2 mL, the “1 h separation, appearance” value [3, 9] was “C” and the “24 h separation, amount” value [3, 9] was 5.1 mL. For the same compound, the “24 h separation, appearance” value [3, 9] was “C”, the “Spon. (spontaneity)” value [3, 9] was “F” and the “1 h separation, amount” value [3, 10] was 2.7 mL. For the same compound, the “1 h separation, appearance” value [3, 10] was “C”, the “24 h separation, amount” value [3, 10] was 4.9 mL and the “24 h separation, appearance” value [3, 10] was “C”. For the same compound, the “Spon. (spontaneity)” value [3, 10] was “F”, the “1 h separation, amount” value [4, 11] was 3.2 mL and the “1 h separation, appearance” value [4, 11] was “C”. The “24 h separation, amount” value [4, 11] was 5.5 mL, the “24 h separation, appearance” value [4, 11] was “C” and the “Spon. (spontaneity)” value [4, 11] was “P”. The “1 h separation, amount” value [4, 12] was 4.2 mL, the “1 h separation, appearance” value [4, 12] was “O” and the “24 h separation, amount” value [4, 12] was 0.8 O, 3.3 CO. The “Spon. (spontaneity)” value [4, 12] was “P”, the “1 h separation, amount” value [4, 13] was 8.8 mL and the “1 h separation, appearance” value [4, 13] was “C”. The “24 h separation, amount” value [4, 13] was 6.8 mL, the “24 h separation, appearance” value [4, 13] was “C” and the “Spon. (spontaneity)” value [4, 13] was “P”. For the same compound, the “1 h separation, amount” value [4, 14] was 4.5 mL, the “1 h separation, appearance” value [4, 14] was “O” and the “24 h separation, amount” value [4, 14] was 4.9 mL. For the same compound, the “24 h separation, appearance” value [4, 14] was “O”, the “Spon. (spontaneity)” value [4, 14] was “P” and the “1 h separation, amount” value [4, 15] was 2.3 mL. The “1 h separation, appearance” value [4, 15] was “C”, the “24 h separation, amount” value [4, 15] was 3 mL and the “24 h separation, appearance” value [4, 15] was “GC”. For the same compound, the “Spon. (spontaneity)” value [4, 15] was “P”, the “1 h separation, amount” value [4, 16] was 2.6 mL and the “1 h separation, appearance” value [4, 16] was “C”. The “24 h separation, amount” value [4, 16] was 3.2 mL, the “24 h separation, appearance” value [4, 16] was “GC” and the “Spon. (spontaneity)” value [4, 16] was “P”.

With CCC=CCCCCCCCCOCCO (mixture of isomers) [A12-4] the “24 h separation, amount” value [2] was “NS”, the “1 h separation, amount” value [3, 5] was 6.2 mL and the “1 h separation, appearance” value [3, 5] was “C”. For the same compound, the “24 h separation, amount” value [3, 5] was 8.8 mL, the “24 h separation, appearance” value [3, 5] was “C” and the “Spon. (spontaneity)” value [3, 5] was “F”. For the same compound, the “1 h separation, amount” value [3, 6] was 6.9 mL, the “1 h separation, appearance” value [3, 6] was “C” and the “24 h separation, amount” value [3, 6] was 8.6 mL. For the same compound, the “24 h separation, appearance” value [3, 6] was “C”, the “Spon. (spontaneity)” value [3, 6] was “F” and the “1 h separation, amount” value [3, 7] was “NS”. For the same compound, the “Spon. (spontaneity)” value [3, 7] was “G”, the “1 h separation, amount” value [3, 8] was 11 mL and the “1 h separation, appearance” value [3, 8] was “C”. For the same compound, the “24 h separation, amount” value [3, 8] was 2 O, 3 CO, the “Spon. (spontaneity)” value [3, 8] was “F” and the “1 h separation, amount” value [3, 9] was 3.1 mL. The “1 h separation, appearance” value [3, 9] was “C”, the “24 h separation, amount” value [3, 9] was 5.9 mL and the “24 h separation, appearance” value [3, 9] was “C”. The “Spon. (spontaneity)” value [3, 9] was “F”, the “1 h separation, amount” value [3, 10] was 3.1 mL and the “1 h separation, appearance” value [3, 10] was “C”. The “24 h separation, amount” value [3, 10] was 6 mL, the “24 h separation, appearance” value [3, 10] was “C” and the “Spon. (spontaneity)” value [3, 10] was “F”. The “1 h separation, amount” value [4, 11] was 6 mL, the “1 h separation, appearance” value [4, 11] was “C” and the “24 h separation, amount” value [4, 11] was 6.7 mL. For the same compound, the “24 h separation, appearance” value [4, 11] was “C”, the “Spon. (spontaneity)” value [4, 11] was “P” and the “1 h separation, amount” value [4, 12] was 4.7 mL. For the same compound, the “1 h separation, appearance” value [4, 12] was “O”, the “24 h separation, amount” value [4, 12] was 4.5 mL and the “24 h separation, appearance” value [4, 12] was “O”. The “Spon. (spontaneity)” value [4, 12] was “P”, the “1 h separation, amount” value [4, 13] was 8 mL and the “1 h separation, appearance” value [4, 13] was “C”. For the same compound, the “Spon. (spontaneity)” value [4, 13] was “P”, the “1 h separation, amount” value [4, 14] was 5.2 mL and the “1 h separation, appearance” value [4, 14] was “O”. For the same compound, the “24 h separation, amount” value [4, 14] was 5.2 mL, the “24 h separation, appearance” value [4, 14] was “O” and the “Spon. (spontaneity)” value [4, 14] was “P”. The “1 h separation, amount” value [4, 15] was 2.3 mL, the “1 h separation, appearance” value [4, 15] was “C” and the “24 h separation, amount” value [4, 15] was 2.5 mL. The “24 h separation, appearance” value [4, 15] was “GC”, the “Spon. (spontaneity)” value [4, 15] was “P” and the “1 h separation, amount” value [4, 16] was 2.3 mL. The “1 h separation, appearance” value [4, 16] was “C”, the “24 h separation, amount” value [4, 16] was 2.7 mL and the “24 h separation, appearance” value [4, 16] was “GC”. For the same compound, the “Spon. (spontaneity)” value [4, 16] was “P”.

From patent US9708251B2, “Unsaturated fatty alcohol alkoxylates from natural oil metathesis” (Stepan Company, priority 2012, dated 2017)
